Results published in patent US12521363B2, “Use of levodopa, carbidopa and entacapone for treating Parkinson's disease” (ORION CORPORATION, priority 2010, dated 2026).

Tests used:
[1] = cited from earlier work
[2] = Repeated-dose levodopa/carbidopa pharmacokinetics with and without entacapone, human subjects (Example 1); format: in vivo; details: for levodopa pharmacokinetics, effect of increasing the carbidopa dose: repeated dosing 4 times a day, levodopa 100 mg, carbidopa 25/50/100 mg
Source text: The primary objective of the study was to evaluate the effects of different carbidopa dose levels on the pharmacokinetics (PKs) of levodopa with and without concomitant administration of entacapone. This was the first study to evaluate the effect of the combinations in a repeated dose setting in human subjects. Pharmacokinetics of levodopa in the presence of AADC and COMT inhibition with substances like carbidopa and entacapone is complex and difficult to model based on single dose PK data in humans, or animal models. However, it has been shown earlier that levodopa PK in healthy subjects is similar to that seen in PD patients and therefore the results of this study indicate how the levodopa PK will be in PD patients and how the levodopa PK will predict symptom control of PD. A total of 25 human subjects were enrolled into the study. The study subjects were randomly allocated to receive either 200 mg of entacapone or corresponding placebo in each treatment period. Entacapone, or a corresponding placebo, was administered concomitantly with 100 mg of levodopa and 25 mg of carbidopa at 3.5-hour intervals 4 times a day. In addition, the study subjects received in a randomised order in each treatment period one of the additional dose levels (0 mg, 25 mg, and 75 mg) of carbidopa. There were 3 treatment periods, one for each carbidopa dose level and for the same subjects with cross-over design so that each subject participated for the 3 periods. There were two groups with the same carbidopa doses, one group with and one group without concomitant entacapone administration. By this study design, the effect of entacapone on carbidopa dose escalation and subsequently to levodopa PK could be assessed in repeated dose setting in humans. Dose combinations were: • A: Entacapone 200 mg+levodopa 100 mg+carbidopa 25 mg • B: Entacapone 200 mg+levodopa 100 mg+carbidopa 50 mg • C: Entacapone 200 mg+levodopa 100 mg+carbidopa 100 mg • E: Levodopa 100 mg+carbidopa 25 mg • F: Levodopa 100 mg+carbidopa 50 mg • G: Levodopa 100 mg+carbidopa 100 mg After the first and last dose of the day, the whole levodopa and carbidopa plasma profiles were assessed and after the second and third dose only the minimum concentrations (just before the next dose at 3.5 and at 7.0 hours) were assessed.

[3] = Repeated-dose levodopa pharmacokinetics with increasing carbidopa, entacapone dose levels or tolcapone (Example 2); format: in vivo, human; details: repeated dosing, increased COMT-inhibition by higher entacapone dose or by tolcapone
Source text: The primary objective of the study was to evaluate the effects of different carbidopa dose levels on the pharmacokinetics (PKs) of levodopa with concomitant administration of different entacapone dose levels and with the moderately potent COMT inhibitor tolcapone.
The study subjects were randomly allocated to receive either increasing doses of entacapone or standard dose of tolcapone combined with increasing doses of carbidopa in each treatment period, a total of 12 different dose combinations. Entacapone was administered concomitantly with 100 mg of levodopa and 25 mg of carbidopa at 3.5-hour intervals 4 times a day and tolcapone 3 times a day. In addition, the study subjects received increasing dose levels of carbidopa.
There were three groups, one for each carbidopa dose level, and 4 treatment periods in each group, one for each entacapone dose level or for tolcapone and for the same subjects with cross-over design so that one subject participated for the 4 periods. By this study design the effect of entacapone and tolcapone on carbidopa dose escalation and subsequently to levodopa PK could be assessed in repeated dose setting in humans.
After each levodopa dose of the day, the levodopa plasma profile was assessed. The levodopa plasma concentrations after entacapone dose escalation and tolcapone standard dose and with increased carbidopa dose are given in FIG. 3.

[4] = increased carbidopa dose in the presence of a COMT inhibitor

**Q.** For `Cc1c(Cl)c(C)[n+]([O-])c(Cl)c1-c1noc(-c2cc(O)c(O)c([N+](=O)[O-])c2)n1` [BIA 9-1067, 5-[3-(2,5-dichloro-4,6-dimethyl-1-oxypyridin-3-yl)-[1,2,4]oxadiazol-5-yl]-3-nitrobenzene-1,2-diol], which solubility [1] is on record?
**A.** poorly soluble

**Q.** With `C[C@@](Cc1ccc(O)c(O)c1)(NN)C(=O)O` [carbidopa, (−)-L-alpha-hydrazino-alpha-methyl-beta-(3,4-dihydroxybenzene)propionic acid] as the compound, how does the “accumulation of carbidopa concentrations in plasma” value ([2]; increased carbidopa dose, repeated dosing, towards the end of the dosing period) read?
**A.** no accumulation

**Q.** Which water solubility ([1]; water) does the source give for `CCN(CC)C(=O)/C(C#N)=C/c1cc(O)c(O)c([N+](=O)[O-])c1` [entacapone, (E)-2-cyano-3-(3,4-dihydroxy-5-nitrophenyl)-N-diethyl-2 propenamide] here?
**A.** poor solubility

**Q.** For `N[C@@H](Cc1ccc(O)c(O)c1)C(=O)O` [levodopa, (−)-L-alpha-amino-beta-(3,4-dihydroxybenzene)propanoic acid], which “levodopa pharmacokinetics, effect of increasing the carbidopa dose” value [3] is on record?
**A.** significantly improve

**Q.** And the AUC of levodopa [2, 4]?
**A.** significantly increased

**Q.** And the Cmin of levodopa [2, 4]?
**A.** significantly increased

**Q.** What about the “maximum concentrations of levodopa” value ([2]; increased carbidopa dose with COMT inhibitor) of the same compound?
**A.** not clinically significantly increased

**Q.** And the “levodopa pharmacokinetics, effect of increasing the carbidopa dose” value ([2]; with entacapone 200 mg)?
**A.** significantly improve

**Q.** And the “levodopa pharmacokinetics, effect of increasing the carbidopa dose” value ([2]; without entacapone)?
**A.** did not have such an effect
